Test results taken from patent publication US20230053540A1, “TREATMENT OF LIVER INJURY” (Massachusetts Institute of Technology, priority 2019, published 2023).

System: hepatocytes
Assay: Seq-Well scRNA-Seq of hepatocytes after APAP overdose (signature scores, DEG vs untreated)
Assay type: in vivo, mouse
[1] = cluster A96, DEG between treatment (APAP and PH)
[2] = fraction of A96 (APAP, 96 h) hepatocytes expressing the gene

Compound: CC(=O)Nc1ccc(O)cc1 [APAP, acetaminophen]
- avg_logFC, gene Decr2 [1]: 0.3018
- avg_logFC, gene Dhdh [1]: 0.2626
- avg_logFC, gene Etfdh [1]: 0.2639
- avg_logFC, gene Etnppl [1]: 0.3154
- avg_logFC, gene F5 [1]: 0.2566
- avg_logFC, gene Fmo1 [1]: 0.265
- avg_logFC, gene G0s2 [1]: 0.2656
- avg_logFC, gene G6pc [1]: 0.2541
- avg_logFC, gene Gabarapl1 [1]: 0.2932
- avg_logFC, gene Gadd45b [1]: 0.2598
- avg_logFC, gene Gas5 [1]: 0.2823
- avg_logFC, gene Gm4952 [1]: 0.2581
- avg_logFC, gene Gsta2 [1]: 0.311
- avg_logFC, gene Gstt3 [1]: 0.3026
- avg_logFC, gene Gyk [1]: 0.3134
- avg_logFC, gene Hmgcl [1]: 0.2744
- avg_logFC, gene Hmgcs1 [1]: 0.3251
- avg_logFC, gene Hpgd [1]: 0.3412
- avg_logFC, gene Hsd17b7 [1]: 0.3028
- avg_logFC, gene Hsd17b10 [1]: 0.2802
- avg_logFC, gene Igfbp1 [1]: 0.2603
- avg_logFC, gene Kif1b [1]: 0.2961
- avg_logFC, gene Lcat [1]: 0.2616
- avg_logFC, gene Mia3 [1]: 0.2604
- avg_logFC, gene Ndufa3 [1]: 0.2743
- avg_logFC, gene Ndufa7 [1]: 0.26
- avg_logFC, gene Nr1i3 [1]: 0.3481
- avg_logFC, gene Oat [1]: 0.4904
- avg_logFC, gene Pon1 [1]: 0.2899
- avg_logFC, gene Por [1]: 0.2867
- avg_logFC, gene Ppp1r3b [1]: 0.251
- avg_logFC, gene Ppp2r5a [1]: 0.3505
- avg_logFC, gene Ptms [1]: 0.2863
- avg_logFC, gene Pxmp4 [1]: 0.2555
- avg_logFC, gene Rdh16 [1]: 0.3477
- avg_logFC, gene Rdx [1]: 0.2566
- avg_logFC, gene Rgn [1]: 0.3686
- avg_logFC, gene Sc4mol [1]: 0.3361
- avg_logFC, gene Slc4a4 [1]: 0.2977
- avg_logFC, gene Slc25a20 [1]: 0.2507
- avg_logFC, gene Slco1a4 [1]: 0.3049
- avg_logFC, gene Snord118 [1]: 0.3782
- avg_logFC, gene Tgoln1 [1]: 0.2809
- avg_logFC, gene Tmed5 [1]: 0.2523
- avg_logFC, gene Tobi [1]: 0.2958
- avg_logFC, gene Tsc22d3 [1]: 0.3363
- avg_logFC, gene Zfp36l1 [1]: 0.2964
- avg_logFC, gene Zfp91 [1]: 0.2775
- pct.1 8430408G22Rik [2]: 0.559
- pct.1 Acot12 [2]: 0.65
- pct.1 Agpat6 [2]: 0.743
- pct.1 Aplp2 [2]: 0.826
- pct.1 Apoc2 [2]: 0.901
- pct.1 Apol7a [2]: 0.559
- pct.1 Aqp9 [2]: 0.801
- pct.1 Arl4a [2]: 0.517
- pct.1 Brap [2]: 0.642
- pct.1 Cd36 [2]: 0.299
- pct.1 Cebpb [2]: 0.585
- pct.1 Cede107 [2]: 0.59
- pct.1 Ces1e [2]: 0.71
- pct.1 Ces1f [2]: 0.895
- pct.1 Cisd1 [2]: 0.781
- pct.1 Cpeb4 [2]: 0.527
- pct.1 Cpox [2]: 0.634
- pct.1 Cxcl12 [2]: 0.635
- pct.1 D4Wsu53e [2]: 0.597
- pct.1 D17Wsu92e [2]: 0.771
- pct.1 Dcxr [2]: 0.735
- pct.1 Dhdh [2]: 0.734
- pct.1 Ech1 [2]: 0.917
- pct.1 Ehhadh [2]: 0.78
- pct.1 Ephx1 [2]: 0.879
- pct.1 Etfdh [2]: 0.811
- pct.1 Etnppl [2]: 0.677
- pct.1 Fmo1 [2]: 0.606
- pct.1 Gclm [2]: 0.865
- pct.1 Hamp2 [2]: 0.203
- pct.1 Hsd17b7 [2]: 0.56
- pct.1 Lcat [2]: 0.886
- pct.1 Mocs2 [2]: 0.737
- pct.1 Mtdh [2]: 0.649
- pct.1 Ndufa3 [2]: 0.737
- pct.1 Ndufb2 [2]: 0.731
- pct.1 Nfe2l2 [2]: 0.465
- pct.1 Oat [2]: 0.653
- pct.1 Pabpc1 [2]: 0.766
- pct.1 Pdk1 [2]: 0.438
- pct.1 Prkd3 [2]: 0.682
- pct.1 Ptp4a2 [2]: 0.691
- pct.1 Rgn [2]: 0.899
- pct.1 Sdhc [2]: 0.76
- pct.1 Sdhd [2]: 0.775
- pct.1 Slc4a4 [2]: 0.609
- pct.1 Slc25a10 [2]: 0.701
- pct.1 Tgoln1 [2]: 0.756
- pct.1 Tmed5 [2]: 0.714
- pct.1 Tmem106b [2]: 0.727
- pct.1 Tob1 [2]: 0.649
- pct.1 Tsc22d3 [2]: 0.534
- pct.1 Usmg5 [2]: 0.59
